This test has as its system E. coli ATCC 25922 and S. aureus ATCC 29213. The test can be described thus: Bacterial growth delay, additional strains (Supplementary Fig. S1). Particulars: E. coli ATCC 25922 and S. aureus ATCC 29213 compared with E. coli O78 and MRSA; MHB or DMEM + FCS; N = 2. The test is classed as cell-based, Escherichia coli; Staphylococcus aureus. As to the method: E. coli O78 (Zoetis Animal Health, Kalamazoo, MI, USA), E. coli ATCC 25922, Staphylococcus aureus ATCC 29213, and methicillin resistant Staphylococcus aureus (MRSA) (WKZ-2, human clinical isolate) were grown overnight from a glycerol stock in Mueller Hinton Broth (MHB) (Becton Dickinson, USA). Before use, bacteria were grown to mid-log phase in MHB for 2 hours at 37 °C, 200 RPM. Murine RAW264.7 macrophages (ATCC-TIB-71) were obtained from the American Type Culture Collection (ATCC, Manassas, VA, USA) and cultured in DMEM (41966-029; Thermo Fisher Scientific, Waltham, MA, USA) supplemented with 10% FCS (Bodinco B.V., Alkmaar, the Netherlands) (DMEM + FCS) at 37 °C, 5.0% CO2. […]
Peptides (0.63 to 40 μM) and bacteria mid-log cultures (2 * 10^6 CFU/ml) were prepared in MHB or DMEM + FCS and mixed (100 μl peptide + 100 μl bacterial culture) in a Bioscreen C analyzer plate (Oy Growth Curves Ab Ltd, Helsingfors, Finland). […] The OD was measured every 15 minutes using a wideband filter (450–580 nm) to measure bacterial growth. The time needed grow above an OD of 0.6 was determined for all concentrations. […]
E. coli ATCC 25922 and S. aureus ATCC 29213 (1x10^6 CFU/ml) were grown in MHB or DMEM+FCS for 16 hours under constant shak ing (200 RPM) in the presence of diﬀerent concentration of cathelicidins (0.31 µM, 0.63 µM, 1.25 µM, 2.5 µM, 5 µM, 10 µM, and 20 µM). The OD was measured ever y 15 minutes. […]

Turning to “RRRPRPPYLPRPRPPPFFPPRLPPRIPPGFPPRFPPRFP [PR-39, porcine proline-rich cathelicidin forming a polyproline helix, 39 residues, charge +10]”, the “Fold difference in Cmax with other bacterial strains” value was 8–16 fold.

(Values after paper PMC5244392, “Interspecies cathelicidin comparison reveals divergence in antimicrobial activity, TLR modulation, chemokine induction and regulation of phagocytosis” (Scientific Reports, 2017).)
